Laboratory results from patent publication US5157020A, “Synthetic senescent cell antigen” (Research Corporation Tech., Inc., priority 1990, dated 1992).

Target: T1, band 3 (Homo sapiens, UniProt P02730)
T1 construct: endogenous in cells; host or cells: stored red blood cells (middle-aged cells stored in Alsever's for 5 wks at 4 C)
T1 sequence (P02730 1-911): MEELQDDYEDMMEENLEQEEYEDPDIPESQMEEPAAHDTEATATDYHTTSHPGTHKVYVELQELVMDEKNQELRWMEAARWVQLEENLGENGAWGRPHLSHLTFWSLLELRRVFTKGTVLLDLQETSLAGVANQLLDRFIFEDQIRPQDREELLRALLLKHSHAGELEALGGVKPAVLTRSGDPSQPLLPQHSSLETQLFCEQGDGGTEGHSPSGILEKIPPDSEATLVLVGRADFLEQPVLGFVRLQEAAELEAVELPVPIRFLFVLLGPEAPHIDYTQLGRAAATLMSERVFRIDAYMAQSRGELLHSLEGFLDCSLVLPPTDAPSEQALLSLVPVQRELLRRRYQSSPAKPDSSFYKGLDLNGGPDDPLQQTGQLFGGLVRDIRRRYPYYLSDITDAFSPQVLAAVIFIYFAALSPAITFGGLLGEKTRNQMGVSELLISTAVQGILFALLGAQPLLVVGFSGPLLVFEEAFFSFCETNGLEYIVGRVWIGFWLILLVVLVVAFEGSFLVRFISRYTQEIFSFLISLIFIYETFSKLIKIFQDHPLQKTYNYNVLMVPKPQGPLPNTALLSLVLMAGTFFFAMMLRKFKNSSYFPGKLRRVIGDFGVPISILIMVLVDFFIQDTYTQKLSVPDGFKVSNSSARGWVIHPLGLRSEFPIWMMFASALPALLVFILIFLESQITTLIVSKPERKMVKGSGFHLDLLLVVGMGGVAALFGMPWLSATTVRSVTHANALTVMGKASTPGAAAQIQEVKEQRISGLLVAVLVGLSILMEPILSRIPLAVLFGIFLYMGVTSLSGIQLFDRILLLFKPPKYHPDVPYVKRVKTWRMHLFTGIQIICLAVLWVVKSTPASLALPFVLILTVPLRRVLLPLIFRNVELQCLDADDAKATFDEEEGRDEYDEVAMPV
Assay: DIDS treatment of stored cells prior to incubation with senescent cell IgG
Type: cell-based
Details: stored cells incubated with 25 uM DIDS for 90 min at room temperature before senescent cell IgG
Description: Since DNP and DIDS modification of ANION 1 and COOH abolished inhibition of senescent cell IgG binding, we reasoned that DIDS binding to band 3 lysines in whole cells should interfere with senescent cell IgG binding. Stored cells were incubated with 25 uM DIDS for 90 min at room temperature prior to incubation with senescent cell IgG. […] Another possibility is that DIDS binding perturbs the configuration of the molecule so that the binding site is altered. However, since our studies indicate that the actual antigenic determinants reside on ANION 1 and COOH (Example 1), it is unlikely that a distant perturbation of the antigenic site by DIDS binding is responsible. It is more likely that a DIDS reactive lysine lies in or near enough to the antigenic site to cause steric hindrance.

SMILES: O=S(=O)(O)c1cc(N=C=S)ccc1CCc1ccc(N=C=S)cc1S(=O)(=O)O [DIDS, diisothiocyano dihydrostilbene disulphonate]
- inhibition of senescent cell IgG binding: 54±3%
